Results: US12441733B2, “Substituted 2,4-dioxotetrahydropyrimidines as intermediates in the synthesis of bruton's tyrosine kinase inhibitors” (Novartis AG, priority 2018, dated 2025)

Target: T1, BTK(C481S)-GFP (Homo sapiens, UniProt Q06187+Q96SW2, C481S)
T1 construct: CHYSEL (cis-acting hydrolase element, 2A) remnant after GFP; mCherry is split off as a separate protein (C); expressed in transfected cells; host or cells: TMD8 cells, lentiviral transduction with pLenti6-BTK(C481S)-GFP-CHYSEL-mCherry
T1 sequence (Q06187 whole entry C481S): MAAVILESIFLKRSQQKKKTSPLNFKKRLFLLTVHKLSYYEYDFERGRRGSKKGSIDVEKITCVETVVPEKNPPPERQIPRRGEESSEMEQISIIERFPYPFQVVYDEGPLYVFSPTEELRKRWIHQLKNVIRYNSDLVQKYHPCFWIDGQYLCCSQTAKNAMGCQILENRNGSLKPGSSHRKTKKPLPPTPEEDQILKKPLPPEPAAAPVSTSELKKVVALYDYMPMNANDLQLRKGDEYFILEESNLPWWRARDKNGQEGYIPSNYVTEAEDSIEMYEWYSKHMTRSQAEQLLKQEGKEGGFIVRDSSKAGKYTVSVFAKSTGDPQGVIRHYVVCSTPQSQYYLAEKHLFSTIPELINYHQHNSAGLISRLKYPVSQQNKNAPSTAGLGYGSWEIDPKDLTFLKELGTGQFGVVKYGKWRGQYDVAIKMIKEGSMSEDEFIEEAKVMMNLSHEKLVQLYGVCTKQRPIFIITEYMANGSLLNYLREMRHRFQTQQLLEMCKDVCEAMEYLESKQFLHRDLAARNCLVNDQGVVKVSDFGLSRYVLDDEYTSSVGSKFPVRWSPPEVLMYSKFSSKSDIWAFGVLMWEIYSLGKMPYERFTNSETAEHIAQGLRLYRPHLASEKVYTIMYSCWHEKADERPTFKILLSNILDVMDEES
T1 sequence (Q96SW2 whole entry): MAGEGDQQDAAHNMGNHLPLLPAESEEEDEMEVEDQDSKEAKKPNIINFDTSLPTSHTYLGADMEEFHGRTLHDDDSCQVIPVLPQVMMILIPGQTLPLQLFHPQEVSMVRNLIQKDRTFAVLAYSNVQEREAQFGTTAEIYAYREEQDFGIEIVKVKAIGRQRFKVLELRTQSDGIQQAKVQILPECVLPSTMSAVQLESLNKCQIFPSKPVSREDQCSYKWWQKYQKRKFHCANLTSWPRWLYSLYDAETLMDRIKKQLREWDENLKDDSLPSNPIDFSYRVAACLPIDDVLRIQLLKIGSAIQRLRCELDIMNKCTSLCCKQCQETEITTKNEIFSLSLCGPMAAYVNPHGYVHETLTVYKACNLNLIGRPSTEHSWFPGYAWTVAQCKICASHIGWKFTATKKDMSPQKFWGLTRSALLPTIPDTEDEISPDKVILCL
T1 sequence (Q16531 whole entry partner): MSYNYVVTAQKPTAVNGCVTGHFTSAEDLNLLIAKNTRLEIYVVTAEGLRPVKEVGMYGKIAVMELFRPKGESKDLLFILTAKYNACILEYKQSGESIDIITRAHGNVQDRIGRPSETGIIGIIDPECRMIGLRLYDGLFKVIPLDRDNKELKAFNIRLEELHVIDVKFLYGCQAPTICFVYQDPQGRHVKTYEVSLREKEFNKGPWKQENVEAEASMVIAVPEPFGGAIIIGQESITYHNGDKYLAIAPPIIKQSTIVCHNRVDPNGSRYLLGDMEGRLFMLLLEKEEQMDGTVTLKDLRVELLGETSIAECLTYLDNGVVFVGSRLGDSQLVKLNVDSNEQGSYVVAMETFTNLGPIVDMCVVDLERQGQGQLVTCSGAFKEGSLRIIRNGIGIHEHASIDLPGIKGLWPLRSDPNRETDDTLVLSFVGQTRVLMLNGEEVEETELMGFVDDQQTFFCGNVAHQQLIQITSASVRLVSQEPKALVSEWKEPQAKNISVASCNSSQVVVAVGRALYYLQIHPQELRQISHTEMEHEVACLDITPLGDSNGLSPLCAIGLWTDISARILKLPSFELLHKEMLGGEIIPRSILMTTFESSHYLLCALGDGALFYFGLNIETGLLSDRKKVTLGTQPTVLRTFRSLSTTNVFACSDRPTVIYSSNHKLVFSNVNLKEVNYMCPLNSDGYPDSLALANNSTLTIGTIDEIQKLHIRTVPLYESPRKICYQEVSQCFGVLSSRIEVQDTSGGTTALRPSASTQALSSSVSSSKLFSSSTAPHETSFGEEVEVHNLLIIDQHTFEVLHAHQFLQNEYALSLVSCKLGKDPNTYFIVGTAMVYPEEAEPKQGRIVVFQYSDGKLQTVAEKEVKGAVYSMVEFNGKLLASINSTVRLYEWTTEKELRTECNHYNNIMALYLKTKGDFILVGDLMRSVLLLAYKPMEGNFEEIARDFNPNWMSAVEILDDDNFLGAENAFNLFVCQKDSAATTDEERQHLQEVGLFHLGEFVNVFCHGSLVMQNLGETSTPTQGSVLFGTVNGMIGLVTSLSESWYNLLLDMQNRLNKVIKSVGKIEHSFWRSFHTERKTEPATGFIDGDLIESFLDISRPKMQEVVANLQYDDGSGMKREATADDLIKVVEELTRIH
Assay: BTK(C481S)-GFP protein abundance flow cytometry assay in TMD8 cells
Type: cell-based
Conditions: TMD8 cells expressing BTK(C481S)-GFP; for DC50: GFP signal by flow cytometry; for BTK (C481S) Amax: % protein remaining at maximum degradation
Description: Compounds of the invention were tested in the following cellular assays. The terms in Table 2 are defined as follows: DC50 refers to the concentration at which 50% maximal degradation was observed; deg Amax is the extent of degradation and the value refers to the % protein remaining at the concentration at which maximum degradation is seen; ProI GI50 refers to the proliferation data and defines the concentration at which 50% growth inhibition was observed compared to the vehicle treated control at the end of the incubation time. TMD8 cells are BTK dependent and OCI-LY3 cells are BTK independent.
Btk(C481S)-GFP Protein Abundance Flow Cytometry Assay in TMD8 Cells:
Degradation of BTK(C481S) was measured in TMD8 cells expressing BTK(C481S)-GFP and mCherry from a stably integrated second generation bicistronic BTK(C481S)-GFP-CHYSEL-mCherry construct. Reduction of the […] measured by flow cytometry served as readout for BTK(C481S) degradation after degrader treatment.
Cloning of the pLenti6-BTK(C481)-GFP-CHYSEL-mCherry Sensor Vectors
The BTK(C481 S) protein abundance sensor is based on a second generation bicistronic construct, where the 2 reading frames BTK(C481S) and mCherry control are separated by a cis-acting hydrolase element (see: Lo et al., 2015 Cell Reports 13, 2634), replacing the Ires from the first generation vector described before.
The bicistronic BTK(C481S)-GFP-CHYSEL-mCherry construct is based on a pLenti6-DEST vector backbone where a GFP-CHYSEL-mCherry cassette was synthesized and inserted downstream of the DEST cassette by Gibson assembly resulting in the new gateway compatible vector pLenti6-DEST-GFP-CHYSEL-mCherry to allow Gateway cloning with pENTR221-BTK(C48S)(STOP-Leu) to obtain the final sensor construct pLenti6-BTK(C481S)-GFP-CHYSEL-mCherry. The pENTR221-BTK(C481S)(STOP-Leu) was generated by mutating wild-type BTK to BTK(C481S) with a mutagenesis reaction on pENTR221-BTK (STOP-Leu) with the following primers (BTK C481S Quikchange fw, gagtacatggccaatggctCcctcctgaactacctgagg (SEQ ID NO: 7); BTK C481S Quikchange REVC, cctcaggtagttcaggaggGagccattggccatgtactc (SEQ ID NO: 8)) using the QuikChange Lightning mutagenesis kit (Agilent Technologies #210518) performed according to the manufacturer's manual, resulting in pENTR221-BTK(C481S)(STOP-Leu).
Sequence of the synthesized construct (Xho1 sites are shown in bold, mCherry-ORF is shown in small letters):
Engineering of Stably Expressing TMD8 BTK(C481 S-GFP-CHYSEL-mCherry Sensor Cells
TMD8 BTK(C481S)-GFP-CHYSEL-mCherry sensor cells were generated by lentiviral vector transduction using the pLenti6-BTK(C4818)-GFP-CHYSEL-mCherry sensor construct described before. Lentiviral particles were produced in HEK293FT cells (Invitrogen R70007) by co-transfection of 500 ng pLenti6-BTK-GFP-Ires-RFP or pLenti6-IKZF3-GFP-Ires-RFP, 500 ng delta8.71 and 200 ng pVSVG diluted in 100 μl OptiMEM serum free medium (Invitrogen #11058-021) that was mixed after 5 min preincubation with 3 μl of Lipofectamine2000 (Invitrogen #11668-019) in 97 μl OptiMEM serum free medium. The mix was incubated for another 20 min at RT and then added to 1 ml of a freshly prepared suspension of HEK293FT cells in a well of a 6-well plate (concentration 1.2×10^6 cells/ml). 1 day after transfection, the medium was replaced with 1.5 ml of complete growth medium (DMEM high Glucose+10% FCS+1% L-Glutamine+1% NEAA+1% NaPyr.). 48 h post transfection supernatant containing viral transducing particles was collected and frozen at −80° C.
Two days before transduction with viral particles 1×10^5 HEK293A cells (Invitrogen R7057) were seeded in 2 ml growth medium in a well of a 6-well plate. Infection was performed with 90 μl of collected supernatant containing viral transducing particles in 1 ml medium including 8 μg/ml polybrene. 24 h post infection, stably transfected cells were selected with blasticidin at a concentration of 8 μg/ml.

| Structure (SMILES) | DC50 [nM] | BTK (C481S) Amax [%] |
| --- | --- | --- |
| Cc1ccc(C(=O)N(C)CCCCCNCc2ccc(-c3cc4c(-c5cc(F)cc(NC(=O)c6ccc(C(C)(C)O)cc6F)c5C)ncnc4[nH]3)cc2)cc1N1CCC(=O)NC1=O [Compound 30, 3-(2,4-Dioxotetrahydropyrimidin-1(2H)-yl)-N-(5-((4-(4-(5-fluoro-3-(2-fluoro-4-(2-hydroxypropan-2-yl)benzamido)-2-methylphenyl)-7H-pyrrolo[2,3-d]pyrimidin-6-yl)benzyl)amino)pentyl)-N,4-dimethylbenzamide] | 8.18 | 3.1 |
| COc1ccc(C(=O)N2CCC3(CCN(CCc4ccc(-c5cc6c(-c7cc(F)cc(NC(=O)c8ccc(C(C)(C)O)cc8F)c7C)ncnc6[nH]5)cc4)CC3)CC2)cc1N1CCC(=O)NC1=O [Compound 31, N-(3-(6-(4-(2-(9-(3-(2,4-Dioxotetrahydropyrimidin-1(2H)-yl)-4-methoxybenzoyl)-3,9-diazaspiro[5.5]undecan-3-yl)ethyl)phenyl)-7H-pyrrolo[2,3-d]pyrimidin-4-yl)-5-fluoro-2-methylphenyl)-2-fluoro-4-(2-hydroxypropan-2-yl)benzamide] | 1.21 | 3.0 |
| COc1ccc(C(=O)N2CCC(OC3CCN(CCc4ccc(-c5cc6c(-c7cc(F)cc(NC(=O)c8ccc(C(C)(C)O)cc8F)c7C)ncnc6[nH]5)cc4)CC3)CC2)cc1N1CCC(=O)NC1=O [Compound 34, N-(3-(6-(4-(2-(4-((1-(3-(2,4-Dioxotetrahydropyrimidin-1(2H)-yl)-4-methoxybenzoyl)piperidin-4-yl)oxyl)piperidin-1-yl)ethyl)phenyl)-7H-pyrrolo[2,3-d]pyrimidin-4-yl)-5-fluoro-2-methylphenyl)-2-fluoro-4-(2-hydroxypropan-2-yl)benzamide] | 1.94 | 1.6 |
| COc1ccc(C(=O)N2CCN(CCCCNCc3ccc(-c4cc5c(-c6cc(F)cc(NC(=O)c7ccc(C(C)(C)O)cc7F)c6C)ncnc5[nH]4)cc3)CC2)cc1N1CCC(=O)NC1=O [Compound 40, N-(3-(6-(4-(((4-(4-(3-(2,4-dioxotetrahydropyrimidin-1(2H)-yl)-4-methoxybenzoyl)piperazin-1-yl)butyl)amino)methyl)phenyl)-7H-pyrrolo[2,3-d]pyrimidin-4-yl)-5-fluoro-2-methylphenyl)-2-fluoro-4-(2-hydroxypropan-2-yl)benzamide] | 3.03 | 2.9 |
| Cc1c(NC(=O)c2ccc(C(C)(C)O)cc2F)cc(F)cc1-c1ncnc2[nH]c(-c3ccc(CCN4CCC5(CC4)CCN(C(=O)c4ccc(F)c(N6CCC(=O)NC6=O)c4)CC5)cc3)cc12 [Compound 47, N-(3-(6-(4-(2-(9-(3-(2,4-dioxotetrahydropyrimidin-1(2H)-yl)-4-fluorobenzoyl)-3,9-diazaspiro[5.5]undecan-3-yl)ethyl)phenyl)-7H-pyrrolo[2,3-d]pyrimidin-4-yl)-5-fluoro-2-methylphenyl)-2-fluoro-4-(2-hydroxypropan-2-yl)benzamide] | 0.72 | 2.4 |
